Values of other authors in patent publication US10174037B2, “Dihydropyrazolopyrimidinone compounds as PDE2 inhibitors” (Merck Sharp & Dohme Corp., priority 2015, dated 2019).

How the values were obtained:
[1] = tested on: other PDE isoforms; conditions: reported in Brandon et al. 2007; cited from earlier work
[2] = reported in Brandon et al. 2007; cited from earlier work

## COc1ccc(Cc2nn3c([C@@H](CCCc4ccccc4)[C@@H](C)O)nc(C)c3c(=O)[nH]2)cc1OC [BAY 60-7550]
[1]
  potency at other PDE isoforms: significant potency
[2]
  brain penetration: limited
